Experimental data taken from the NIST ThermoML archive (doi:10.1021/je0602263).

Assay: xn = mol fraction of the nth substance listed
Details: 298.15 K, 101 kPa, Liquid

CC(C)CC(C)(C)C [2,2,4-trimethylpentane] + COC(=O)OC
Details | mass density [kg/m3]
x2 = 0 | 688.04

c1ccccc1 [benzene] + COC(=O)OC
Details | mass density [kg/m3]
x2 = 0 | 873.56

COC(=O)OC [dimethyl carbonate] + CC(C)CC(C)(C)C
Details | mass density [kg/m3]
x1 = 0.0497 | 696.81
x1 = 0.1 | 706.22
x1 = 0.15 | 716.12
x1 = 0.2001 | 726.95
x1 = 0.2499 | 738.38
x1 = 0.2998 | 750.67
x1 = 0.3498 | 763.75
x1 = 0.4004 | 777.96
x1 = 0.4498 | 792.89
x1 = 0.5002 | 809.29
x1 = 0.5499 | 826.46
x1 = 0.5998 | 845.2
x1 = 0.6502 | 865.43
x1 = 0.7 | 887.02
x1 = 0.75 | 910.31
x1 = 0.8 | 935.94
x1 = 0.8499 | 963.69
x1 = 0.8999 | 993.77
x1 = 0.9498 | 1026.79
x1 = 1 | 1063.19

COC(=O)OC [dimethyl carbonate] + CCCCCCC
Details | mass density [kg/m3]
x1 = 0.0501 | 690.16
x1 = 0.0999 | 700.47
x1 = 0.15 | 711.7
x1 = 0.1998 | 723.65
x1 = 0.2501 | 736.28
x1 = 0.2999 | 749.59
x1 = 0.3501 | 763.95
x1 = 0.4 | 779.05
x1 = 0.4499 | 795.07
x1 = 0.5001 | 812.18
x1 = 0.5498 | 830.25
x1 = 0.6 | 849.67
x1 = 0.6499 | 870.23
x1 = 0.7001 | 892.23
x1 = 0.75 | 915.72
x1 = 0.8 | 941.09
x1 = 0.8501 | 968.3
x1 = 0.9001 | 997.61
x1 = 0.9501 | 1029.09
x1 = 1 | 1063.19

COC(=O)OC [dimethyl carbonate] + Cc1ccccc1
Details | mass density [kg/m3]
x1 = 0.0498 | 869.9
x1 = 0.0998 | 877.68
x1 = 0.15 | 885.75
x1 = 0.1999 | 893.96
x1 = 0.2498 | 902.39
x1 = 0.2999 | 911.1
x1 = 0.3498 | 919.98
x1 = 0.4 | 929.22
x1 = 0.4498 | 938.57
x1 = 0.4999 | 948.26
x1 = 0.5499 | 958.27
x1 = 0.5999 | 968.51
x1 = 0.65 | 979.06
x1 = 0.7 | 989.94
x1 = 0.7499 | 1001.14
x1 = 0.8001 | 1012.77
x1 = 0.8501 | 1024.73
x1 = 0.8998 | 1037.03
x1 = 0.9502 | 1049.89
x1 = 1 | 1063.19

COC(=O)OC [dimethyl carbonate] + c1ccccc1
Details | mass density [kg/m3]
x1 = 0.0499 | 882
x1 = 0.1 | 890.57
x1 = 0.15 | 899.18
x1 = 0.2001 | 907.93
x1 = 0.2499 | 916.61
x1 = 0.3 | 925.59
x1 = 0.3498 | 934.53
x1 = 0.4 | 943.7
x1 = 0.45 | 952.89
x1 = 0.5001 | 962.25
x1 = 0.55 | 971.69
x1 = 0.6 | 981.28
x1 = 0.6499 | 990.96
x1 = 0.7001 | 1000.84
x1 = 0.7501 | 1010.88
x1 = 0.8001 | 1021.01
x1 = 0.8498 | 1031.36
x1 = 0.8999 | 1041.69
x1 = 0.9501 | 1052.35
x1 = 1 | 1063.19

CCCCCCC [heptane] + COC(=O)OC
Details | mass density [kg/m3]
x2 = 0 | 680.52

Cc1ccccc1 [toluene] + COC(=O)OC
Details | mass density [kg/m3]
x2 = 0 | 862.5
